In brackets after ≈: the same amount, converted by molar mass. Several values for one entry are separate records, joined by “and”; a condition that tells them apart may be missing. Equal entries are not always repeated.
How the values were obtained:
[1] = test system: MRSA strain CR15-071 (USA100) cells persistent to vancomycin; assay: Vancomycin-persistent cells, high bacterial load on TSA plates; assay type: cell-based, Staphylococcus aureus; conditions: 1MIC derivative (128 µg/mL) plus vancomycin 4MIC (8 µg/mL), ~10^9 CFU/ml
Description: For this test, we choose the MRSA strain CR15-071 representative of the ST5-SCCmecII lineage (NY/Japan-USA100 clone), since this MRSA has replaced the ST239-SCCmecIII (the Brazilian clone) in this country, and is now the most frequent MRSA lineage in Brazilian hospitals. […]. The plates were incubated at 37 °C/24 h before being examined. […]. Bacterial growth was determined by removing persistent cells from the plates and determining UFC/ml. Controls were also performed using 2% (v/v) DMSO only. Three independent experiments were performed in triplicate.

[2] = test system: MRSA strain BMB9393 biofilm; assay: Biofilm development on polystyrene, crystal violet; assay type: cell-based, Staphylococcus aureus; conditions: 1/4MIC (7b 32 µg/mL, 7c 16 µg/mL); strain BMB9393, 24 h, crystal violet
Description: Biofilms were formed on polystyrene surfaces using the BEC representative, strain BMB9393. […] The same volume of the bacterial culture in TSB-Glu (37 °C/18 h; at 250 rpm) diluted 1/100 in the same broth was added to the wells. After incubation (37 °C/24 h), supernatants were gently removed, rinsed with distilled water, and treated with crystal violet solution as described. […] Eight independent tests with three replicates each were performed. Controls were inoculated with the same bacterial inoculum but using only TSB-Glu with 2% (v/v) DMSO, final concentration.

sigB = assay: Real-time RT-qPCR of global regulators; assay type: cell-based, Staphylococcus aureus
in vitro = conditions: human, pH 7.4
Description: (§1) Erythrocytes were collected from three human volunteers in a citrate tube and washed three times (3×) with PBS (pH 7.4). All derivatives were incubated with the PBS-erythrocyte suspension for 3 h at 37 °C. The hemolysis with the release of hemoglobin was quantified by the spectrophotometric reading of the supernatant at 545 nm. Hemolysis less than 10% represented hemocompatibility and non-toxicity against erythrocyte membranes. For the positive control, the human erythrocytes were lysed with 1% (v/v) Triton X-100. The negative control was performed with 1% (v/v) DMSO only (final concentration). […] All methods were carried out in accordance with relevant guidelines and regulations. In addition, informed consent was obtained from all volunteers. Three independent experiments were performed in triplicate.

Cytotoxicity assay (MTT) = conditions: African green monkey, Vero cell monolayers
Description: (§2) Plates were incubated for 1 h, the supernatant again removed, and 200 µL dimethyl sulfoxide (DMSO) were added to each well to dissolve the formazan crystals for 10 min. Absorbance was measured at 570 nm using an ELISA reader (Thermo Plate, TP-READER, Thermo Fisher Scientific). […] The selectivity index (SI) was calculated as follows: SI (µg/mL) = CC50/MIC[17]. Three independent experiments were performed in triplicate. Controls were performed using 2% (v/v) DMSO only.

human erythrocytes = assay: Hemocompatibility assay; conditions: highest concentration evaluated (300 µg/mL), 3 h at 37 °C
Description: as §1

Vero cell line = assay: Cytotoxicity assay (MTT); conditions: Vero cells, 24 h, MTT
Description: as §2

Compound | Reduction in the total of vancomycin-persistent cells [1] | Reduction of accumulated biofilm matrix [2] | Increase of sigB transcripts (sigB) | hemolysis at 3 h, 300 µg/mL (in vitro) | CC50 at 24 h (Cytotoxicity assay (MTT)) | Hemolysis, maximum values (human erythrocytes) | CC50 (Vero cell line)
CCOCNC1=CC(=O)c2ccccc2C1=O [7b, 2-(ethoxymethyl)-amino-1,4-naphthoquinone] | complete inhibition of persistent cells | 87.4% ± 1.9% and 88% | did not affect | 2.7 ± 0.3% | 219.9 ± 1.87 µg/mL (≈ 951 µM) | – | –
C#CCOCNC1=CC(=O)c2ccccc2C1=O [7c, 2-(propynyloxymethyl)-amino-1,4-naphthoquinone] | – | 75.6% ± 3.7% and 75% | 57.22 ± 5.2% | – | – | 1.5 ± 0.5% | 20.15 ± 2.11 µg/mL (≈ 83.5 µM)

From publication PMC7661526, “Antibiofilm effects of N,O-acetals derived from 2-amino-1,4-naphthoquinone are associated with downregulation of important global virulence regulators in methicillin-resistant Staphylococcus aureus” (Scientific Reports, 2020)
